Columns and labels:
[1] = Stability testing (initial 5% w/w water) of the composition produced in Example 4; details: for relative amount of component at end of reaction (start of the stability trial): composition of Example 4 (initial 5% w/w water; H2O content 4.76 w/w), b61 reads the values as % of the composition
[2] = Stability testing (absence of water) of the composition produced in Example 3; details: for relative amount of component at end of reaction (start of the stability trial): composition of Example 3 (no water added; H2O content 0.12 w/w), b61 reads the values as % of the composition
[3] = composition of Example 4 (initial 5% w/w water), 25° C., 13 days
[4] = composition of Example 4 (initial 5% w/w water), 40° C., 13 days
[5] = composition of Example 3 (absence of water), 25° C., 13 days
[6] = composition of Example 3 (absence of water), 40° C., 13 days

| SMILES | relative amount of component, stability at 25° C. after 13 days [1, 3] | relative amount of component, stability at 40° C. after 13 days [1, 4] | relative amount of component at end of reaction (start of the stability trial) ([1]; day 16 of reaction at 50° C.) | relative amount of component, stability at 25° C. after 13 days [2, 5] | relative amount of component, stability at 40° C. after 13 days [2, 6] | relative amount of component at end of reaction (start of the stability trial) ([2]; day 15 of reaction at 60° C.) | BME % (w/w), stability at 25° C. after 13 days [1, 3] | BME % (w/w), stability at 40° C. after 13 days [1, 4] | BME % (w/w) at end of reaction (start of the stability trial) ([1]; composition of Example 4 (initial 5% w/w water), day 16 of reaction at 50° C.) | BME % (w/w), stability at 25° C. after 13 days [2, 5] | BME % (w/w), stability at 40° C. after 13 days [2, 6] | BME % (w/w) at end of reaction (start of the stability trial) ([2]; composition of Example 3 (absence of water), day 15 of reaction at 60° C.) |
| --- | --- | --- | --- | --- | --- | --- | --- | --- | --- | --- | --- | --- |
| CN1[C@H]2CC[C@@H]1[C@@H](C(=O)O)[C@@H](OC(=O)c1ccccc1)C2 [BEc, benzoylecgonine] | 64.02 | 66.31 | 63.8 | 3.99 | 4.28 | 4.097 | – | – | – | – | – | – |
| O=C(O)c1ccccc1 [BA, benzoic acid] | 9.17 | 9.68 | 8.99 | 27.35 | 28.75 | 26.05 | – | – | – | – | – | – |
| COC(=O)[C@H]1[C@@H](OC(=O)c2ccccc2)C[C@@H]2CC[C@H]1N2C [BME, 3-benzoyloxy-2-carbomethyoxy-8-methyl-8-azabicyclo[3.2.1]octane] | 0.84 | 0.46 | 0.95 | 1.19 | 0.90 | 1.76 | 0.07 % (w/w) | 0.04 % (w/w) | 0.08 % (w/w) | 0.08 % (w/w) | 0.06 % (w/w) | 0.13 % (w/w) |
| COC(=O)C1=CC[C@@H]2CC[C@H]1N2C [Methyl Ecd] | 0.86 | 0.80 | 1.00 | 1.33 | 1.26 | 1.42 | – | – | – | – | – | – |

Source: patent US20030144317A1, “Novel benzoylecgonine compositions and methods for producing them” (priority 2001, published 2003)
